Data: the NIST ThermoML archive (doi:10.1021/je900131q)
“And” between values parts separate entries of the source, which are not always exact repeats. Equal values may be shown once.

Settings: Fluid (supercritical or subcritical phases); for mass density: Buoyancy - hydrostatic balance with magnetic suspension - one sinker; for viscosity: Vibrating wire viscometer

[He] [helium]
Settings	mass density	viscosity [mPa·s]
293.13 K, 27527 kPa	39.805 kg/m3	0.01975
293.14 K, 2446 kPa	3.967 kg/m3	0.01958
293.14 K, 16374 kPa	24.912 kg/m3	0.01958
293.14 K, 20744 kPa	30.969 kg/m3	0.01962
293.14 K, 27529 kPa	39.804 kg/m3	0.01975
293.15 K, 122.25 kPa	0.19885 kg/m3	0.01954
293.15 K, 245.73 kPa	0.40368 kg/m3	0.01958
293.15 K, 366.51 kPa	0.59858 kg/m3	0.01959
293.15 K, 366.53 kPa	0.60087 kg/m3	0.01959
293.15 K, 482.99 kPa	0.79042 kg/m3	0.01959
293.15 K, 483 kPa	0.79119 kg/m3	0.01959
293.15 K, 1219.9 kPa	1.9866 kg/m3	0.01959
293.15 K, 1827.5 kPa	2.9695 kg/m3	0.01958
293.15 K, 1827.6 kPa	2.9711 kg/m3	0.01958
293.15 K, 2466.2 kPa	3.9699 kg/m3	0.01958
293.15 K, 3714.2 kPa	5.9819 kg/m3	0.01957
293.15 K, 3714.3 kPa	5.9857 kg/m3	0.01956
293.15 K, 4978.6 kPa	7.974 kg/m3	0.01956
293.15 K, 4978.7 kPa	7.9747 kg/m3	0.01956
293.15 K, 4995.9 kPa	7.9672 kg/m3	0.01957
293.15 K, 7564.1 kPa	11.972 kg/m3	0.01955
293.15 K, 7564.2 kPa	11.972 kg/m3	0.01955
293.15 K, 8842.9 kPa	13.917 kg/m3 and 13.915 kg/m3	0.01955
293.15 K, 10227 kPa	15.922 kg/m3	0.01957
293.15 K, 12231 kPa	18.954 kg/m3	0.01956
293.15 K, 14295 kPa	21.949 kg/m3	0.01957
293.15 K, 14296 kPa	21.953 kg/m3	0.01957
293.15 K, 14320 kPa	21.908 kg/m3	0.01959
293.15 K, 16374 kPa	24.913 kg/m3	0.01958
293.15 K, 18460 kPa	27.833 kg/m3 and 27.831 kg/m3	0.0196
293.15 K, 20744 kPa	30.973 kg/m3	0.01963
293.15 K, 22880 kPa	33.856 kg/m3	0.01966
293.15 K, 22883 kPa	33.861 kg/m3	0.01966
293.15 K, 22973 kPa	33.811 kg/m3	0.01968
293.15 K, 25224 kPa	36.797 kg/m3	0.01972
293.15 K, 25329 kPa	37.097 kg/m3 and 37.099 kg/m3	0.01969
293.16 K, 245.73 kPa	0.40445 kg/m3	0.01958
293.16 K, 613.17 kPa	1.0037 kg/m3	0.01959
293.16 K, 613.18 kPa	1.0029 kg/m3	0.01959
293.16 K, 2447.5 kPa	3.9693 kg/m3 and 3.9647 kg/m3	0.01958
293.16 K, 3742.3 kPa	5.9974 kg/m3	0.01958
293.16 K, 4996.2 kPa	7.965 kg/m3	0.01957
293.16 K, 6263.9 kPa	9.9737 kg/m3 and 9.9745 kg/m3	0.01956
293.16 K, 6273.2 kPa	9.9551 kg/m3	0.01957
293.16 K, 7587 kPa	11.953 kg/m3	0.01957
293.16 K, 14320 kPa	21.907 kg/m3	0.01959
293.16 K, 22974 kPa	33.812 kg/m3	0.01968
293.16 K, 25225 kPa	36.795 kg/m3	0.01971
293.16 K, 30149 kPa	43.152 kg/m3	0.0198
293.16 K, 30150 kPa	43.152 kg/m3	0.0198
293.17 K, 3742.6 kPa	5.9981 kg/m3	0.01958
293.17 K, 6273.4 kPa	9.9566 kg/m3	0.01957
293.17 K, 6273.7 kPa	9.9551 kg/m3	0.01957
293.17 K, 7587.3 kPa	11.953 kg/m3	0.01957
293.17 K, 8869.8 kPa	13.892 kg/m3	0.01957
293.17 K, 10198 kPa	15.951 kg/m3 and 15.945 kg/m3	0.01955
293.17 K, 12237 kPa	18.892 kg/m3	0.01958
293.17 K, 18562 kPa	27.894 kg/m3	0.01962
293.18 K, 2466.6 kPa	3.9663 kg/m3	0.01959
293.18 K, 8870.2 kPa	13.894 kg/m3	0.01957
293.18 K, 10228 kPa	15.928 kg/m3	0.01958
293.18 K, 12237 kPa	18.892 kg/m3	0.01958
293.18 K, 16436 kPa	24.919 kg/m3	0.01961
293.18 K, 18563 kPa	27.897 kg/m3	0.01964
293.18 K, 22975 kPa	33.81 kg/m3	0.01968
293.19 K, 16436 kPa	24.919 kg/m3	0.01961
293.19 K, 18564 kPa	27.893 kg/m3	0.01963
293.2 K, 20756 kPa	30.909 kg/m3	0.01965
293.2 K, 20757 kPa	30.907 kg/m3	0.01966
293.21 K, 30174 kPa	43.24 kg/m3	0.0198
293.21 K, 30175 kPa	43.241 kg/m3 and 43.243 kg/m3	0.01979
293.22 K, 30175 kPa	43.244 kg/m3	0.0198
293.24 K, 1220.6 kPa	1.9766 kg/m3	0.01959
293.25 K, 1220.7 kPa	1.978 kg/m3	0.0196
293.25 K, 1827.1 kPa	2.949 kg/m3	0.01959
293.26 K, 613.3 kPa	0.99551 kg/m3	0.0196
293.26 K, 1827.3 kPa	2.9512 kg/m3	0.01959
293.27 K, 489.97 kPa	0.79365 kg/m3	0.0196
293.27 K, 490.02 kPa	0.79727 kg/m3	0.0196
293.27 K, 613.45 kPa	0.99623 kg/m3	0.0196
293.28 K, 121.3 kPa	0.19968 kg/m3	0.01954
293.28 K, 121.33 kPa	0.19895 kg/m3	0.01955
293.28 K, 244.14 kPa	0.39719 kg/m3	0.01958
293.28 K, 244.19 kPa	0.39791 kg/m3	0.01958
293.28 K, 366.66 kPa	0.59687 kg/m3	0.01959
293.28 K, 366.7 kPa	0.59542 kg/m3	0.01959
